# Results reported in article PMC12686490 (Nature Communications, 2025).
# Numbered stars: 1 amine (or outer) side, 2 acyl side, 3 side chain; on linkers, the order of the positions; unused ones are H or OH. Bridge positions count the residues as written; N and C are the ends. Square brackets hold non-standard residues; d marks the D form. Peptide text beside a SMILES is read from it. X1 = O=C(C1(O)C[C@H](O)[C@@H](N[*:1])[C@H]([C@H](O)[C@H](O)CO)O1)[*:2]; X2 = CC(=O)NC(C(=O)OC(C(C)C)C(N[*:1])C(=O)[*:2])C(O)C(C)C; NMeW = CN[C@@H](Cc1c[nH]c2ccccc12)C(=O)O; Phe(3-Br) = N[C@@H](Cc1cccc(Br)c1)C(=O)O; PhLac = O=C(O)[CH](O)Cc1ccccc1; NMeT = CN[CH](C(=O)O)[CH](C)O; Nle = CCCC[C@H](N)C(=O)O; NMeA = CN[CH](C)C(=O)O; NMeDha = C=C(NC)C(=O)O
# Tests used:
# [1] = system: CCKBR-LTP in the auditory cortex; assay: MEA recording, TBS-induced CCKBR-LTP in auditory cortex slices of C57 mice; design: species or system mouse; conditions: for Effect on TBS-induced CCKBR-LTP: one-hour preincubation: 100 nM YF476, 10 μM U-73122, 50 μM 2-APB, 20 μM YM254890, 100 μM barbadin, 10 μM H-89, 300 ng PTX injected into AC 24-48 h before
# [2] = molecular target: GPR173 / β-arrestin2 (Homo sapiens, UniProt Q9NS66); assay: BRET-based β-arrestin2 assay, 293T-GPR173 cells; format: cell-based; conditions: up to 10 μM
# [3] = molecular target: GPR173 / β-arrestin1 (Homo sapiens, UniProt Q9NS66); assay: BRET-based β-arrestin1 assay, 293T-GPR173 cells; format: cell-based; conditions: up to 10 μM
# [4] = system: CCKBR-LTP in the auditory cortex; assay: MEA recording, drug plus LFS-induced LTP in auditory cortex slices; design: species or system mouse; conditions: 200 nM, 10 min, AC slices of C57 mice
# [5] = molecular target: T1, CCKBR (Homo sapiens, UniProt P32239); assay: PRESTO-Tango assay; format: cell-based; conditions: screening
# T1 sequence (P32239 1-447): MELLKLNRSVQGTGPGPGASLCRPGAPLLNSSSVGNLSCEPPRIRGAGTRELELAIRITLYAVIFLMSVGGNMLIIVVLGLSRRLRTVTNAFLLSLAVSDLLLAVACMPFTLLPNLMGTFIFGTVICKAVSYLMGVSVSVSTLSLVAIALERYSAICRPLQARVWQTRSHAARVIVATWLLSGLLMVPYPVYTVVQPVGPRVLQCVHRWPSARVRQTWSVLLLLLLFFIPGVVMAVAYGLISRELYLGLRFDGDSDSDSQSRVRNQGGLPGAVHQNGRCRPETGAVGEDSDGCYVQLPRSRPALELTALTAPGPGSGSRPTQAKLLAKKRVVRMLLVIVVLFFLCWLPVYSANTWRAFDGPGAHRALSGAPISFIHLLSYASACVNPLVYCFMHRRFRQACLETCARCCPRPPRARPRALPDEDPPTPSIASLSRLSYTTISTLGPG
# [6] = molecular target: T1, CCKBR; assay: Calcium mobilization assay; format: cell-based; conditions: screening
# Sequence of GPR173 / β-arrestin2 (Q9NS66 whole entry): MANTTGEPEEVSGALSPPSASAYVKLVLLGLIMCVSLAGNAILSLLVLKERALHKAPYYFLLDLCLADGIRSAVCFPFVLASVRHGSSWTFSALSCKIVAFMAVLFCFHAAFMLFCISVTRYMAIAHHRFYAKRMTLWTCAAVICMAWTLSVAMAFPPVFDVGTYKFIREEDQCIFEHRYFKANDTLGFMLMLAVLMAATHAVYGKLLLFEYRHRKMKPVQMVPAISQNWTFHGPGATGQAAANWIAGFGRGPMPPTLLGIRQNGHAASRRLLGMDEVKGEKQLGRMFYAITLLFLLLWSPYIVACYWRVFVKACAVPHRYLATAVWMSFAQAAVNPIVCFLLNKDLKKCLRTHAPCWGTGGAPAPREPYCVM
# Sequence of GPR173 / β-arrestin1 (Q9NS66 whole entry): as above
SMILES,Effect on TBS-induced CCKBR-LTP [1],also measured
NCCOB(c1ccccc1)c1ccccc1 [2-APB],significantly and almost completely inhibited,
CSCC[C@H](NC(=O)[C@H](Cc1ccc(OS(=O)(=O)O)cc1)NC(=O)[C@@H](N)CC(=O)O)C(=O)NCC(=O)N[C@@H](Cc1c[nH]c2ccccc12)C(=O)N[C@@H](CCSC)C(=O)N[C@@H](CC(=O)O)C(=O)N[C@@H](Cc1ccccc1)C(N)=O [CCK8s],,Activation of β-arrestin2 downstream of GPR173 [2]: could activate; Activation of β-arrestin1 downstream of GPR173 [3]: could activate; LTP induction by drug with LFS (fEPSP amplitude) [4]: induced LTP
O=S(=O)(NCCNC/C=C/c1ccc(Br)cc1)c1cccc2cnccc12 [H-89],partially inhibited,
CCCC[C@H](NC(=O)[C@H](Cc1c[nH]c2ccccc12)N(C)C(=O)C1(O)C[C@H](O)[C@@H](NC(C)=O)[C@H]([C@H](O)[C@H](O)CO)O1)C(=O)N[C@@H](CC(=O)O)C(=O)N[C@@H](Cc1cccc(Br)c1)C(N)=O (stereo partly drawn) [MF-7] (Ac-[X1][NMeW][Nle]D[Phe(3-Br)]-NH2),,Induction of β-arrestin2 signaling [5]: highly potent; Activation of Gαq/11-Ca2+ signaling [6]: performed poorly
COc1ccc2c(c1)CC[C@@H]1[C@@H]2CC[C@]2(C)[C@@H](NCCCCCCN3C(=O)C=CC3=O)CC[C@@H]12 [U-73122],significantly and almost completely inhibited,
CNc1cccc(NC(=O)N[C@@H]2N=C(c3ccccn3)c3ccccc3N(CC(=O)C(C)(C)C)C2=O)c1 [YF476],confirmed that the LTP was CCKBR-dependent,
C=C1C(=O)NC(C)C(=O)N(C)C(C)C(=O)NC(C(OC(=O)C(NC(C)=O)C(O)C(C)C)C(C)C)C(=O)N(C)C(C(C)OC)C(=O)OC(C)C(NC(C)=O)C(=O)OC(Cc2ccccc2)C(=O)N1C (stereo not drawn) [YM254890] (Ac-T[PhLac][NMeDha]A[NMeA][X2][NMeT](Me); ester 1-C; configuration not given here),significantly and almost completely inhibited,
Nn1cnc2scc(-c3ccc(Cc4ccccc4)cc3)c2c1=O [barbadin],could not inhibit,Effect on the inhibition of TBS-induced LTP by MF-8 ([1]; 2-h preincubation of barbadin + 200 nM MF-8): could indeed eliminate the inhibitory effect of MF-8
